Tests used:
biofilms = assay: Applicant's testing of the amount of cis-2-decenoic acid needed for sufficient activity; assay type: cell-based; details: relative to the Article's 1.0 nM to 10 mM
Source text: An article titled A Fatty Acid Messenger Is Responsible for Inducing Dispersion in Microbial Biofilms, published in March 2009 in the Journal of Bacteriology (“Article”) is incorporated by reference herein in its entirety. The Article discloses that cis-2-decenoic acid may be used to disperse biofilms.

Microbial Biofilms = details: as stated in the Article; cited from earlier work

Row | SMILES | actual amount needed for sufficient activity (biofilms) | amount needed for activity (biofilm dispersion) (Microbial Biofilms)
1 | CCCCCCC/C=C\C(=O)O [cis-2-decenoic acid] | several times more than that | 
2 | CCCCCCC/C=C/C(=O)O [trans-2-decenoic acid] |  | in the mM range

— US10597314B2, “Fatty acid biodispersant and methods of use” (General Electric Company, priority 2013, dated 2020)
